{
  "source": "patent US20220409620A1",
  "about": "“REDUCING IMMUNOGENICITY TO PEGLOTICASE” (Horizon Pharma Rheumatology LLC, priority 2016, published 2022)",
  "tested_on": "adult patients with uncontrolled gout",
  "assay": "Health Assessment Questionnaire (HAQ-DI, HAQ pain, HAQ health), open-label study",
  "type": "in vivo, human",
  "design": "key to HAQ-Health, Observed, Median / HAQ-Health, Change from Baseline, Median: 0-100 scale; 0 = very well, 100 = very poor health; key to HAQ-DI, Observed, Median / HAQ-DI, Change from Baseline, Median: HAQ-DI scale 0-3; 0 = no difficulty, 3 = unable to do",
  "conditions": "mITT Population",
  "procedure": "Quality-of-Life Assessment: The HAQ was administered at the Screening and Week −4 or week −6 (prior to the first dose of MTX) Visits during the MTX Run-in Period for the open-label and randomized studies, respectively; prior to pegloticase infusion at the Day 1 and Weeks 14, 24 and 36 Visits or at the Day 1 and weeks 6, 14, 20, 24, 30, 36, and 44 visits during the Pegloticase+IMM Period for the open-label and randomized studies, respectively; at the End of Pegloticase Infusions Visit (if applicable), the Week 52/End of Study/Early Termination Visit and the Post Treatment Periods 3 and 6 Month Follow-up Visits (open-label study). The HAQ-DI is a self-report functional status instrument that can be filled out by a subject in less than 5 minutes and requires 1 minute to score. The index measures disability over the past week by asking a total of 20 questions covering 8 domains of function: dressing and grooming, arising, eating, walking, hygiene, reach, grip, and usual activities. There are at least 2 questions in each domain and the 8 domains represent a comprehensive set of functional activities. The HAQ-DI is calculated by scoring the answer to each question in the HAQ from 0 to 3, with 0 representing the ability to do without any difficulty, and 3 representing inability to do. Any activity that requires assistance from another individual or requires the use of an assistive device raises a 0 or 1 score to a 2. The highest score for each of the 8 domains is summed (range from 0 to 24) and divided by 8 to yield, on a scale with 25 possible values, a Functional Disability Index with a range from 0 to 3. The disability index is based on the number of domains answered and is computed only if the subject completes answers to at least 6 domains. The HAQ pain scale asks subjects to record how much pain they have had in the past week on a scale of 0 to 100, where zero represents “no pain” and 100 represents “severe pain”. The HAQ health scale is a measure of overall health. Subjects are asked to rate how well they are doing on a score of 0 to 100, where zero represents “very well” and 100 represents “very poor” health.",
  "key": {"[1]": {"conditions": "Week 52/ET, Methotrexate Baseline"}, "[2]": {"conditions": "Week 52/ET, Pegloticase Baseline"}},
  "data": [
    {"substance": "pegloticase", "values": [
      {"measurement": "HAQ-Health, Observed, Mean (SD)", "setting": "Week 14, Pegloticase Baseline", "result": "36.6 (33.87)"},
      {"measurement": "HAQ-Health, Observed, Median", "setting": "Week 14, Pegloticase Baseline", "result": 16.5},
      {"measurement": "HAQ-Pain, Change from Baseline, Mean (SD)", "setting": "Week 14, Pegloticase Baseline", "result": "−16.0 (30.65)"},
      {"measurement": "HAQ-Pain, Change from Baseline, Median", "setting": "Week 14, Pegloticase Baseline", "result": "−12.5"},
      {"measurement": "HAQ-Pain, Observed, Mean (SD)", "setting": "Week 14, Pegloticase Baseline", "result": "27.1 (26.25)"},
      {"measurement": "HAQ-Pain, Observed, Median", "setting": "Week 14, Pegloticase Baseline", "result": 15.0},
      {"measurement": "HAQ-DI, Change from Baseline, Mean (SD)", "setting": "Week 24, Methotrexate Baseline", "result": "−0.5 (0.74)"},
      {"measurement": "HAQ-DI, Change from Baseline, Median", "setting": "Week 24, Methotrexate Baseline", "result": "−0.1"},
      {"measurement": "HAQ-DI, Observed, Mean (SD)", "setting": "Week 24, Methotrexate Baseline", "result": "0.2 (0.33)"},
      {"measurement": "HAQ-DI, Observed, Median", "setting": "Week 24, Methotrexate Baseline", "result": 0.1},
      {"measurement": "HAQ-Health, Change from Baseline, Mean (SD)", "setting": "Week 24, Methotrexate Baseline", "result": "−33.2 (36.01)"},
      {"measurement": "HAQ-Health, Change from Baseline, Median", "setting": "Week 24, Methotrexate Baseline", "result": "−40.0"},
      {"measurement": "HAQ-Health, Observed, Mean (SD)", "setting": "Week 24, Methotrexate Baseline", "result": "21.4 (26.65)"},
      {"measurement": "HAQ-Health, Observed, Median", "setting": "Week 24, Methotrexate Baseline", "result": 10.0},
      {"measurement": "HAQ-Pain, Change from Baseline, Mean (SD)", "setting": "Week 24, Methotrexate Baseline", "result": "−19.2 (35.13)"},
      {"measurement": "HAQ-Pain, Change from Baseline, Median", "setting": "Week 24, Methotrexate Baseline", "result": "−10.0"},
      {"measurement": "HAQ-Pain, Observed, Mean (SD)", "setting": "Week 24, Methotrexate Baseline", "result": "25.4 (27.50)"},
      {"measurement": "HAQ-Pain, Observed, Median", "setting": "Week 24, Methotrexate Baseline", "result": 20.0},
      {"measurement": "HAQ-DI, Change from Baseline, Mean (SD)", "setting": "Week 24, Pegloticase Baseline", "result": "−0.6 (0.85)"},
      {"measurement": "HAQ-DI, Change from Baseline, Median", "setting": "Week 24, Pegloticase Baseline", "result": "−0.1"},
      {"measurement": "HAQ-DI, Observed, Mean (SD)", "setting": "Week 24, Pegloticase Baseline", "result": "0.2 (0.33)"},
      {"measurement": "HAQ-DI, Observed, Median", "setting": "Week 24, Pegloticase Baseline", "result": 0.1},
      {"measurement": "HAQ-Health, Change from Baseline, Mean (SD)", "setting": "Week 24, Pegloticase Baseline", "result": "−19.7 (43.38)"},
      {"measurement": "HAQ-Health, Change from Baseline, Median", "setting": "Week 24, Pegloticase Baseline", "result": "−10.0"},
      {"measurement": "HAQ-Health, Observed, Mean (SD)", "setting": "Week 24, Pegloticase Baseline", "result": "21.4 (26.65)"},
      {"measurement": "HAQ-Health, Observed, Median", "setting": "Week 24, Pegloticase Baseline", "result": 10.0},
      {"measurement": "HAQ-Pain, Change from Baseline, Mean (SD)", "setting": "Week 24, Pegloticase Baseline", "result": "−16.7 (38.53)"},
      {"measurement": "HAQ-Pain, Change from Baseline, Median", "setting": "Week 24, Pegloticase Baseline", "result": "−10.0"},
      {"measurement": "HAQ-Pain, Observed, Mean (SD)", "setting": "Week 24, Pegloticase Baseline", "result": "25.4 (27.50)"},
      {"measurement": "HAQ-Pain, Observed, Median", "setting": "Week 24, Pegloticase Baseline", "result": 20.0},
      {"measurement": "HAQ-DI, Change from Baseline, Mean (SD)", "setting": "Week 36, Methotrexate Baseline", "result": "−0.5 (0.80)"},
      {"measurement": "HAQ-DI, Change from Baseline, Median", "setting": "Week 36, Methotrexate Baseline", "result": 0.0},
      {"measurement": "HAQ-DI, Observed, Mean (SD)", "setting": "Week 36, Methotrexate Baseline", "result": "0.3 (0.49)"},
      {"measurement": "HAQ-DI, Observed, Median", "setting": "Week 36, Methotrexate Baseline", "result": 0.1},
      {"measurement": "HAQ-Health, Change from Baseline, Mean (SD)", "setting": "Week 36, Methotrexate Baseline", "result": "−27.7 (42.59)"},
      {"measurement": "HAQ-Health, Change from Baseline, Median", "setting": "Week 36, Methotrexate Baseline", "result": "−10.0"},
      {"measurement": "HAQ-Health, Observed, Mean (SD)", "setting": "Week 36, Methotrexate Baseline", "result": "27.3 (35.18)"},
      {"measurement": "HAQ-Health, Observed, Median", "setting": "Week 36, Methotrexate Baseline", "result": 10.0},
      {"measurement": "HAQ-Pain, Change from Baseline, Mean (SD)", "setting": "Week 36, Methotrexate Baseline", "result": "−22.9 (28.41)"},
      {"measurement": "HAQ-Pain, Change from Baseline, Median", "setting": "Week 36, Methotrexate Baseline", "result": "−20.0"},
      {"measurement": "HAQ-Pain, Observed, Mean (SD)", "setting": "Week 36, Methotrexate Baseline", "result": "21.0 (27.60)"},
      {"measurement": "HAQ-Pain, Observed, Median", "setting": "Week 36, Methotrexate Baseline", "result": 10.0},
      {"measurement": "HAQ-DI, Change from Baseline, Mean (SD)", "setting": "Week 36, Pegloticase Baseline", "result": "−0.5 (0.86)"},
      {"measurement": "HAQ-DI, Change from Baseline, Median", "setting": "Week 36, Pegloticase Baseline", "result": "−0.1"},
      {"measurement": "HAQ-DI, Observed, Mean (SD)", "setting": "Week 36, Pegloticase Baseline", "result": "0.3 (0.49)"},
      {"measurement": "HAQ-DI, Observed, Median", "setting": "Week 36, Pegloticase Baseline", "result": 0.1},
      {"measurement": "HAQ-Health, Change from Baseline, Mean (SD)", "setting": "Week 36, Pegloticase Baseline", "result": "−16.2 (50.72)"},
      {"measurement": "HAQ-Health, Change from Baseline, Median", "setting": "Week 36, Pegloticase Baseline", "result": "−10.0"},
      {"measurement": "HAQ-Health, Observed, Mean (SD)", "setting": "Week 36, Pegloticase Baseline", "result": "27.3 (35.18)"},
      {"measurement": "HAQ-Health, Observed, Median", "setting": "Week 36, Pegloticase Baseline", "result": 10.0},
      {"measurement": "HAQ-Pain, Change from Baseline, Mean (SD)", "setting": "Week 36, Pegloticase Baseline", "result": "−19.9 (20.25)"},
      {"measurement": "HAQ-Pain, Change from Baseline, Median", "setting": "Week 36, Pegloticase Baseline", "result": "−20.0"},
      {"measurement": "HAQ-Pain, Observed, Mean (SD)", "setting": "Week 36, Pegloticase Baseline", "result": "21.0 (27.60)"},
      {"measurement": "HAQ-Pain, Observed, Median", "setting": "Week 36, Pegloticase Baseline", "result": 10.0},
      {"measurement": "HAQ-DI, Change from Baseline, Mean (SD)", "setting": "[1]", "result": "−0.6 (0.87)"},
      {"measurement": "HAQ-DI, Change from Baseline, Median", "setting": "[1]", "result": "−0.1"},
      {"measurement": "HAQ-DI, Observed, Mean (SD)", "setting": "[1]", "result": "0.4 (0.29)"},
      {"measurement": "HAQ-DI, Observed, Median", "setting": "[1]", "result": 0.3},
      {"measurement": "HAQ-Health, Change from Baseline, Mean (SD)", "setting": "[1]", "result": "−16.7 (59.23)"},
      {"measurement": "HAQ-Health, Change from Baseline, Median", "setting": "[1]", "result": 15.0},
      {"measurement": "HAQ-Health, Observed, Mean (SD)", "setting": "[1]", "result": "60.0 (48.22)"},
      {"measurement": "HAQ-Health, Observed, Median", "setting": "[1]", "result": 80.0},
      {"measurement": "HAQ-Pain, Change from Baseline, Mean (SD)", "setting": "[1]", "result": "−42.7 (18.04)"},
      {"measurement": "HAQ-Pain, Change from Baseline, Median", "setting": "[1]", "result": "−44.0"},
      {"measurement": "HAQ-Pain, Observed, Mean (SD)", "setting": "[1]", "result": "4.0 (5.20)"},
      {"measurement": "HAQ-Pain, Observed, Median", "setting": "[1]", "result": 1.0},
      {"measurement": "HAQ-DI, Change from Baseline, Mean (SD)", "setting": "[2]", "result": "−0.8 (1.08)"},
      {"measurement": "HAQ-DI, Change from Baseline, Median", "setting": "[2]", "result": "−0.1"},
      {"measurement": "HAQ-DI, Observed, Mean (SD)", "setting": "[2]", "result": "0.4 (0.29)"},
      {"measurement": "HAQ-DI, Observed, Median", "setting": "[2]", "result": 0.3},
      {"measurement": "HAQ-Health, Change from Baseline, Mean (SD)", "setting": "[2]", "result": "23.3 (54.85)"},
      {"measurement": "HAQ-Health, Change from Baseline, Median", "setting": "[2]", "result": 5.0},
      {"measurement": "HAQ-Health, Observed, Mean (SD)", "setting": "[2]", "result": "60.0 (48.22)"},
      {"measurement": "HAQ-Health, Observed, Median", "setting": "[2]", "result": 80.0},
      {"measurement": "HAQ-Pain, Change from Baseline, Mean (SD)", "setting": "[2]", "result": "−41.0 (25.24)"},
      {"measurement": "HAQ-Pain, Change from Baseline, Median", "setting": "[2]", "result": "−29.0"},
      {"measurement": "HAQ-Pain, Observed, Mean (SD)", "setting": "[2]", "result": "4.0 (5.20)"},
      {"measurement": "HAQ-Pain, Observed, Median", "setting": "[2]", "result": 1.0}
    ]}
  ]
}
